The results in this text go back to US20240101544A1, “INHIBITORS OF QPCTL AND QPCT” (priority 2022, published 2024).

In assay [1] the target is QPCT (rhQPCT) (Homo sapiens (Human), UniProt Q16769). Put plainly: QPCT Enzymatic Activity Assay (coupled-enzyme fluorescent assay, H-Gln-AMC substrate). The class given is biochemical. To be noted: rhQPCT 10-12 nM, 10 μM H-Gln-AMC; read-out: QPCT Inhibition IC50. As to the method:
QPCT activity was measured in a coupled-enzyme assay using the QPCT substrate, glutamine-7-amido-4-methylcoumarin (H-Gln-AMC, Bachem), which is converted to pyroglutamyl-AMC by QPCT. Pyroglutamyl-AMC is then converted to the fluorescent molecule, AMC, by incubation with the human enzyme pyroglutamyl peptidase-1 (PGPEP-1). […] Following the incubation, H-Gln-AMC substrate was diluted in assay buffer and added to each well for a final concentration of 10 μM. The reaction was incubated for 60 min at 37° C., before stopping it by boiling at 100° C. for 5 minutes and cooling the plate at 4° C. for 3 minutes. […] Following incubation, the fluorescence was measured with a plate reader using excitation at 380 nm and emission at 460 nm. […] Concentration-response-curves and IC50 values (Table 17) were generated using Collaborative Drug Discovery software.

Assay [2] has as its target T1, QPCTL (Homo sapiens (Human), UniProt Q9NXS2). Put plainly: QPCTL Enzymatic Activity Assay (coupled-enzyme fluorescent assay, H-Gln-AMC substrate). The class given is biochemical. To be noted: recombinant truncated human QPCTL 10-12 nM, 10 μM H-Gln-AMC; read-out: QPCTL Inhibition IC50. As to the method: Protein expression was induced when the bacterial culture OD600 was approximately 0.7 using 1 mM IPTG and the cells incubated at 20° C. for approximately 16 hours. The QPCTL was purified using nickel column purification, digested by TEV, followed by a second nickel column purification. The protein was further purified by size-exclusion chromatography using a Superdex™ 75 column. The final protein was concentrated using ultrafiltration tubes at a molecular weight cutoff of 10 kilodaltons and stored frozen in protein buffer (25 mM Tris pH 8.3, 150 mM NaCl).
QPCTL activity was measured in a coupled-enzyme assay using the QPCTL substrate, glutamine-7-amido-4-methylcoumarin (H-Gln-AMC, Bachem), which is converted to pyroglutamyl-AMC by QPCTL. Pyroglutamyl-AMC is then converted to the fluorescent molecule, AMC, by incubation with the human enzyme pyroglutamyl peptidase-1. […] Final concentrations of DMSO and test compounds were 2% and 30-100 μM, respectively. Following the incubation, H-Gln-AMC substrate was diluted in assay buffer and added to each well for a final concentration of 10 μM. The reaction was incubated for 60 min at 37° C., before stopping it by boiling at 100° C. for 5 minutes and cooling the plate at 4° C. for 3 minutes. […] Following incubation, the fluorescence was measured with a plate reader using excitation at 380 nm and emission at 460 nm. […] Concentration-response-curves and IC50 values (Table 17) were generated using curve fit software.
Target sequence in this assay (Q9NXS2 53-382): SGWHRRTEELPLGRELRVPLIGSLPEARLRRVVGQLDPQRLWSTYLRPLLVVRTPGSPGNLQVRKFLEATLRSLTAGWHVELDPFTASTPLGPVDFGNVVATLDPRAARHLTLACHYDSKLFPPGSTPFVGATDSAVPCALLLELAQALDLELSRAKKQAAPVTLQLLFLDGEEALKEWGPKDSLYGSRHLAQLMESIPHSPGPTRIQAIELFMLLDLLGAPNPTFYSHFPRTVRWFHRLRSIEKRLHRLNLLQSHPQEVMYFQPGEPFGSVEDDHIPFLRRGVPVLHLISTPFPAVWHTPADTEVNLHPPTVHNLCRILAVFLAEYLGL

The target of assay [3] is T1, QPCTL. Put plainly: Inhibition of Cellular QPCTL Activity - Imaging Assay, CC2C6 anti-CD47 staining of DLD-1 cells. The class given is cell-based. To be noted: 72 hours, CC2C6 anti-CD47 high-content imaging. How it is done:
Inhibition of Cellular QPCTL Activity—Imaging Assay
The cells were incubated for 72 hours at 37° C. and 5% CO2. […] After primary antibody staining, the cells were fixed with 4% paraformaldehyde in the incubation buffer for 15 minutes at room temperature. […] Cells were analyzed on a ImageXpress Pico Automated Cell Imaging System (Molecular Devices) using 10× objective (3×3 fields).
Target sequence in this assay (Q9NXS2 whole entry, the tested form may be a part): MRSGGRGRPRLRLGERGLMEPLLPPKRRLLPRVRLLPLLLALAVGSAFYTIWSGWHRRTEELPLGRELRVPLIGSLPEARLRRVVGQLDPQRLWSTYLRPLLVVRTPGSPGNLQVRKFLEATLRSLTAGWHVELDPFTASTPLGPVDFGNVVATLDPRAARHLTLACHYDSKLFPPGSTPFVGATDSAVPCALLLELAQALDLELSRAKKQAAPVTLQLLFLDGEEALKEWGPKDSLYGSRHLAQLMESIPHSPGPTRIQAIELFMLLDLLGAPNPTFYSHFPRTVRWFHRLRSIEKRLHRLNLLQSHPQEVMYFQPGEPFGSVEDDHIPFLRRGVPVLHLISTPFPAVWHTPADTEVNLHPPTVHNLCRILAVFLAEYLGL

Chain of QPCT (rhQPCT) (Q16769 29-361): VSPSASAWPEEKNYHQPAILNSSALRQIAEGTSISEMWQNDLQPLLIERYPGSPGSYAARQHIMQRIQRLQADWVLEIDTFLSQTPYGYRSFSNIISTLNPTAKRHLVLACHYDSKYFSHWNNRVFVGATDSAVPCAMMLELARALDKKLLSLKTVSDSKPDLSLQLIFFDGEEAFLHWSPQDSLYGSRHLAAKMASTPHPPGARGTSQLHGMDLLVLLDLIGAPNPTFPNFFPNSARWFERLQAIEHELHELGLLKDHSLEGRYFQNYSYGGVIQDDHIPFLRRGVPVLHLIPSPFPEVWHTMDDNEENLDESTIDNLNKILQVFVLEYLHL

Take `Cn1cnnc1C1CCN(c2c(C#N)cc(C(F)(F)F)cc2-c2ccc(F)nc2)CC1` [Example 70, 3-(6-fluoropyridin-3-yl)-2-(4-(4-methyl-4H-1,2,4-triazol-3-yl)piperidin-1-yl)-5-(trifluoromethyl)benzonitrile]: the IC50 in assay [1], in assay [2] and in assay [3] was below 100 nM throughout.
With `Cn1cnnc1C1CCN(c2c(C#N)cccc2-c2cncc(B(O)O)c2)CC1` [Example 117, (5-(3-cyano-2-(4-(4-methyl-4H-1,2,4-triazol-3-yl)piperidin-1-yl)phenyl)pyridin-3-yl)boronic acid], the IC50 in assay [1], in assay [2] and in assay [3] was below 100 nM throughout.
Regarding `Cn1cnnc1C1CCN(c2c(-c3ccc(F)nc3)ccc(-c3ccn(C4CC4)n3)c2C#N)CC1` [Example 98, 6-(1-cyclopropyl-1H-pyrazol-3-yl)-3-(6-fluoropyridin-3-yl)-2-(4-(4-methyl-4H-1,2,4-triazol-3-yl)piperidin-1-yl)benzonitrile], the IC50 in assay [1], in assay [2] and in assay [3] was below 100 nM each time.
With `Cn1cnnc1C1CCN(c2c(-c3ccc(F)nc3)ccc(C3COC3)c2C#N)CC1` [Example 108, 3-(6-fluoropyridin-3-yl)-2-(4-(4-methyl-4H-1,2,4-triazol-3-yl)piperidin-1-yl)-6-(oxetan-3-yl)benzonitrile], the half-inhibitory concentration (IC50) in assay [1], in assay [2] and in assay [3] was below 100 nM throughout.
Turning to `Cn1cnnc1C1CCN(c2c(-c3ccc(F)nc3)ccc(-c3cc[nH]n3)c2C#N)CC1` [Example 45, 3-(6-fluoropyridin-3-yl)-2-(4-(4-methyl-4H-1,2,4-triazol-3-yl)piperidin-1-yl)-6-(1H-pyrazol-3-yl)benzonitrile], the concentration for half-maximal inhibition (IC50) in assay [1], in assay [2] and in assay [3] was below 100 nM each time.
For the compound `Cn1ccc(-c2ccc(-c3ccc(O)c(C=O)c3)c(N3CCC(c4nncn4C)CC3)c2C#N)n1` [Example 124, 3′-formyl-4′-hydroxy-4-(1-methyl-1H-pyrazol-3-yl)-2-(4-(4-methyl-4H-1,2,4-triazol-3-yl)piperidin-1-yl)-[1,1′-biphenyl]-3-carbonitrile], the values for the IC50 in assay [1], in assay [2] and in assay [3] were below 100 nM, below 100 nM and 100 to 1000 nM, respectively.
As for `CN(C)C(=O)c1ccc(-c2ccc(F)nc2)c(N2CCC(c3nncn3C)CC2)c1C#N` [Example 79, 2-cyano-4-(6-fluoropyridin-3-yl)-N,N-dimethyl-3-(4-(4-methyl-4H-1,2,4-triazol-3-yl)piperidin-1-yl)benzamide], the half-inhibitory concentration (IC50) in assay [1] is below 100 nM; in assay [2], below 100 nM; in assay [3], 100 to 1000 nM.
Turning to `Cc1cc(-c2cccc(C#N)c2N2CCC(c3nncn3C)CC2)cnc1F` [Example 47, 3-(6-fluoro-5-methylpyridin-3-yl)-2-(4-(4-methyl-4H-1,2,4-triazol-3-yl)piperidin-1-yl)benzonitrile], the 50% inhibitory concentration (IC50) in assay [1], in assay [2] and in assay [3] was below 100 nM throughout.
For the compound `COCCOc1ccc(-c2ccc(F)nc2)c(N2CCC(c3nncn3C)CC2)c1C#N` [Example 86, 3-(6-fluoropyridin-3-yl)-6-(2-methoxyethoxy)-2-(4-(4-methyl-4H-1,2,4-triazol-3-yl)piperidin-1-yl)benzonitrile], the IC50 in assay [1], in assay [2] and in assay [3] was below 100 nM in each case.
As for `CNCCOc1ccc(-c2ccc(F)nc2)c(N2CCC(c3nncn3C)CC2)c1C#N` [Example 82, 3-(6-fluoropyridin-3-yl)-2-(4-(4-methyl-4H-1,2,4-triazol-3-yl)piperidin-1-yl)-6-(2-(methylamino)ethoxy)benzonitrile], the IC50 in assay [1] is below 100 nM; in assay [2] it was below 100 nM; in assay [3], 1000 to 10000 nM.
On to `Cn1cnnc1C1CCN(c2c(-c3ccc(F)nc3)ccc(C3CC3)c2C#N)CC1` [Example 68, 6-cyclopropyl-3-(6-fluoropyridin-3-yl)-2-(4-(4-methyl-4H-1,2,4-triazol-3-yl)piperidin-1-yl)benzonitrile], for which the IC50 in assay [1], in assay [2] and in assay [3] was below 100 nM throughout.
For `Cn1cnnc1C1CCN(c2c(C#N)cc(S(C)(=O)=O)cc2-c2ccc(F)nc2)CC1` [Example 101, 3-(6-fluoropyridin-3-yl)-2-(4-(4-methyl-4H-1,2,4-triazol-3-yl)piperidin-1-yl)-5-(methylsulfonyl)benzonitrile], the figures for the IC50 in assay [1], in assay [2] and in assay [3] were below 100 nM, below 100 nM and 1000 to 10000 nM, respectively.
As for `Cn1cnnc1N1CCN(c2c(C#N)cccc2-c2ccc(F)nc2)CC1` [Example 106, 3-(6-fluoropyridin-3-yl)-2-(4-(4-methyl-4H-1,2,4-triazol-3-yl)piperazin-1-yl)benzonitrile], the half-inhibitory concentration (IC50) in assay [1], in assay [2] and in assay [3] was below 100 nM throughout.
Regarding `Cn1cnnc1C1CCN(c2c(C#N)cc(C#N)cc2-c2ccc(F)nc2)CC1` [Example 100, 5-(6-fluoropyridin-3-yl)-4-(4-(4-methyl-4H-1,2,4-triazol-3-yl)piperidin-1-yl)isophthalonitrile], the IC50 in assay [1], in assay [2] and in assay [3] was below 100 nM in each case.
In the case of `Cn1cnnc1C1CCN(c2c(-c3ccc(F)nc3)ccc(F)c2C#N)CC1` [Example 71, 6-fluoro-3-(6-fluoropyridin-3-yl)-2-(4-(4-methyl-4H-1,2,4-triazol-3-yl)piperidin-1-yl)benzonitrile], the IC50 in assay [1], in assay [2] and in assay [3] was below 100 nM throughout.
With `Cn1cnnc1C1CCN(c2c(-c3ccc(F)nc3)ccc(-c3cn[nH]c3)c2C#N)CC1` [Example 73, 3-(6-fluoropyridin-3-yl)-2-(4-(4-methyl-4H-1,2,4-triazol-3-yl)piperidin-1-yl)-6-(1H-pyrazol-4-yl)benzonitrile], the IC50 in assay [1], in assay [2] and in assay [3] was below 100 nM in each case.
Consider `Cn1cnnc1C1CCN(c2c(C#N)cccc2-c2ccc(O)c(C=O)c2)CC1` [Example 109, 3′-formyl-4′-hydroxy-2-(4-(4-methyl-4H-1,2,4-triazol-3-yl)piperidin-1-yl)-[1,1′-biphenyl]-3-carbonitrile], for which the IC50 in assay [1], in assay [2] and in assay [3] was below 100 nM each time.
Regarding `Cc1cc(-c2ccc(-c3cc[nH]n3)c(C#N)c2N2CCC(c3nncn3C)CC2)cnn1` [Example 65, 2-(4-(4-methyl-4H-1,2,4-triazol-3-yl)piperidin-1-yl)-3-(6-methylpyridazin-4-yl)-6-(1H-pyrazol-3-yl)benzonitrile], the 50% inhibitory concentration (IC50) in assay [1] was below 100 nM; in assay [2], below 100 nM; in assay [3], above 10000 nM.
For the compound `C#Cc1ccc(-c2cccc(C#N)c2N2CCC(c3nncn3C)CC2)cc1C=O` [Example 128, 4′-ethynyl-3′-formyl-2-(4-(4-methyl-4H-1,2,4-triazol-3-yl)piperidin-1-yl)-[1,1′-biphenyl]-3-carbonitrile], the IC50 in assay [1] is below 100 nM; in assay [2] it was 100 to 1000 nM.
The corresponding values for `Cn1cnnc1C1CCN(c2c(C#N)cccc2-c2ccc3c(c2)B(O)OC3)CC1` [Example 121, 3-(1-hydroxy-1,3-dihydrobenzo[c][1,2]oxaborol-6-yl)-2-(4-(4-methyl-4H-1,2,4-triazol-3-yl)piperidin-1-yl)benzonitrile] are 100 to 1000 nM and 100 to 1000 nM.
In the same order, the values of `N#Cc1cccc(-c2ccc(F)nc2)c1N1CCC(c2nnc[nH]2)CC1` [Example 49, 2-(4-(4H-1,2,4-triazol-3-yl)piperidin-1-yl)-3-(6-fluoropyridin-3-yl)benzonitrile] are 100 to 1000 nM and 100 to 1000 nM.
In the case of `Cn1cnnc1N1CCN(c2c(C#N)ccc(F)c2-c2ccc(F)nc2)CC1` [Example 127, 4-fluoro-3-(6-fluoropyridin-3-yl)-2-(4-(4-methyl-4H-1,2,4-triazol-3-yl)piperazin-1-yl)benzonitrile], the half-maximal inhibitory concentration (IC50) in assay [1] and in assay [2] was below 100 nM throughout.

What is called IC50 is the midpoint of a concentration-inhibition curve.
